In US8273787B2, “Activated cytotoxic compounds for attachment to targeting molecules for the treatment of mammalian disease conditions” (Onconova Therapeutics, Inc, priority 2006, dated 2012) one finds IC50, RSIST-ANCE and fold resistant data, which are given here for 2 compounds.

In general, IC50 refers to the midpoint of a concentration-inhibition curve.

The test system of one assay is MES-SA (PARENTAL). Description: growth inhibition, MES-SA (parental). Format: cell-based. Conditions: Homo sapiens, uterine sarcoma. The protocol: (§1) Two compounds were selected from our library of cytotoxic molecules for immunoconjugation since they both have IC50 values in the low nanomolar range. Various tumor cell lines (ATCC) were treated for 96 hours in the presence of increasing concentrations of each compound and the total number of viable cells remaining was determined after 96 hours of exposure. The IC50 value was determined to be the amount of drug required to inhibit the growth of each cell line 50% as compared to vehicle treated cells.
(§2) Another extremely important predictive factor is the ability of these compounds to kill cell lines overexpressing multiple drug resistance (MDR) genes. A very high percentage of cancer patient relapses are due to some form of resistance to traditional chemotherapy. Of these patients, the vast majority express one or more of the MDR genes within the ABC transport gene family. Overexpression of these genes increases the efflux of compounds that are recognized by these pumping systems. […] Onconova's benzyl styryl sulfone compounds are not recognized by the MDR-1 gene and therefore provide an advantage over other highly toxic drugs including but not limited to the taxanes, doxorubicin, etoposide, and vinca-alkaloids. […] MES-SA/Dx5, uterine sarcoma, and […], ovarian, are both classical multidrug resistant cell lines that are cross resistant to the taxanes and anthracyclins. Harker, W G, and Sikic, B. I., Multidrug (Pleiotropic) Resistance In Doxorubicin-Selected Variants Of The Human Sarcoma Cell Line MES-SA, Cancer Res. 45(9):4091-6 (1985). MES-SA/Dx5 and Apr. […] Fujimori, A., et al., Mutation At The Catalytic Site Of Topoisomerase I In CEM/C2, A Human Leukemia Cell Line Resistant To Camptothecin, Cancer Res. 55(6): 1339-46 (1995). ON 01500 and ON 013100, for example, are both extremely active against these resistant cell lines.

Another assay has as its system MES-SA/Dx5 (RESISTANT). The assay is described as follows: growth inhibition, MES-SA/Dx5 (resistant). Format: cell-based, Human. The protocol:
as §1, §2

A further assay concerns 2008 (PARENTAL). The assay is described as follows: growth inhibition, 2008 (parental). The conditions noted are these: ovarian. The assay is classed as cell-based. How it is done: as §1, §2
The test system of the next assay is 2008/17/4 (RESISTANT). The assay is described as follows: growth inhibition, 2008/17/4 (resistant). Format: cell-based. How it is done:
as §1, §2

Another assay relates to CEM. Description: 96 hour growth inhibition, CEM. The assay is classed as cell-based. Conditions: Homo sapiens, CCRF-CEM; CEM (PARENTAL). How it is done:
as §1, §2

The next assay has as its system CEM/C2 (RESISTANT). The assay is described as follows: growth inhibition, CEM/C2 (resistant). Format: cell-based, Human. How it is done:
as §1, §2

On to `CC(=O)O[C@H]1C(=O)[C@@]2(C)[C@H]([C@H](OC(=O)c3ccccc3)[C@]3(O)C[C@H](OC(=O)[C@H](O)[C@@H](NC(=O)c4ccccc4)c4ccccc4)C(C)=C1C3(C)C)[C@]1(OC(C)=O)CO[C@@H]1C[C@@H]2O` [PACLITAXEL, reference compound], for which the IC50 was 4 nM in the assay on MES-SA (PARENTAL); 750 nM with MES-SA/Dx5 (RESISTANT) (Homo sapiens, MES-SA/Dx5 (RESISTANT), uterine sarcoma, multidrug resistant); 3 nM with 2008 (PARENTAL); 2000 nM in the assay on 2008/17/4 (RESISTANT) (2008/17/4 (RESISTANT), ovarian, multidrug resistant). Further, the results for the RSIST-ANCE in the assay with MES-SA/Dx5 (RESISTANT) (MES-SA/Dx5 (RESISTANT) versus MES-SA (PARENTAL)) and with 2008/17/4 (RESISTANT) (2008/17/4 (RESISTANT) versus 2008 (PARENTAL)) were 188 and 667, respectively. Besides, the fold resistant is 188 fold in the assay on MES-SA/Dx5 (RESISTANT) (MES-SA/Dx5 versus parental) and 667 fold in the assay with 2008/17/4 (RESISTANT) (2008/17/4 (printed Apr. 17, 2008) versus parental).
With `CC[C@@]1(O)C(=O)OCc2c1cc1n(c2=O)Cc2cc3ccccc3nc2-1` [CAMPTOTHECIN, reference compound], the IC50 worked out at 2 nM with CEM and 1000 nM in the assay on CEM/C2 (RESISTANT) (Homo sapiens, CEM/C2 (RESISTANT), non classical multiple drug resistant). Moreover, the RSIST-ANCE in the assay on CEM/C2 (RESISTANT) (CEM/C2 (RESISTANT) versus CEM (PARENTAL)) came to 500.
